Tests used:
[1] = Metabolic stability in cynomolgus monkey hepatocytes assessed as 12-hydroxy muraglitazar level by LC/MS analysis relative to control; assay type: ADME, cell-based, Macaca fascicularis, Hepatocyte
Plasma [2] = test: Biodistribution in orally dosed Beagle dog plasma assessed as 17-dihydroxy muraglitazar level after 1 hr by LC/MS analysis; assay type: ADME, organism-based, Canis lupus familiaris; conditions: in vivo, po
[3] = Metabolic stability in cynomolgus monkey hepatocytes assessed as O-demethyl muraglitazar glucuronide level by LC/MS analysis relative to control; assay type: ADME, cell-based, Macaca fascicularis, Hepatocyte
[4] = Biodistribution in orally dosed human feces assessed as 12-hydroxy muraglitazar level by LC/MS analysis; assay type: ADME, organism-based; conditions: in vivo, po
[5] = Biodistribution in orally dosed cynomolgus monkey urine assessed as 12-hydroxy-O-demethyl muraglitazar level by LC/MS analysis; assay type: ADME, organism-based, Macaca fascicularis; conditions: in vivo, po
[6] = Metabolic stability in CD1 mouse hepatocytes assessed as O-demethyl muraglitazar glucuronide level by LC/MS analysis relative to control; assay type: ADME, cell-based, Hepatocyte
[7] = Biodistribution in orally dosed cynomolgus monkey urine assessed as 8-hydroxy muraglitazar level by LC/MS analysis; assay type: ADME, organism-based, Macaca fascicularis; conditions: in vivo, po
Plasma [8] = test: Biodistribution in orally dosed cynomolgus monkey plasma assessed as 17-hydroxy-O-demethyl muraglitazar level after 4 hrs by LC/MS analysis; assay type: ADME, organism-based, Macaca fascicularis; conditions: in vivo, po
[9] = Drug concentration in bile duct-cannulated Sprague-Dawley rat bile at 10 mg/kg, po after 24 hrs; assay type: ADME, organism-based; set-up: dose 10 mg/kg, route oral; conditions: in vivo
[10] = Metabolic stability in cynomolgus monkey hepatocytes assessed as O-dealkyl-O-demethyl muraglitazar level by LC/MS analysis relative to control; assay type: ADME, cell-based, Macaca fascicularis, Hepatocyte
Rattus norvegicus [11] = test: Biodistribution in orally dosed Sprague-Dawley rat urine assessed as 17-hydroxy-O-demethyl muraglitazar level by LC/MS analysis; assay type: ADME, organism-based; conditions: in vivo, po
[12] = Fecal excretion of compound in orally dosed cynomolgus monkey within 48 hrs; assay type: ADME, organism-based, Macaca fascicularis; conditions: faeces, po, read-out: Activity
[13] = Fecal excretion of compound in bile duct-cannulated orally dosed cynomolgus monkey within 48 hrs; assay type: ADME, organism-based, Macaca fascicularis; conditions: faeces, po, read-out: Activity
[14] = Metabolic stability in CD1 mouse hepatocytes assessed as 9-hydroxy muraglitazar level by LC/MS analysis relative to control; assay type: ADME, cell-based, Hepatocyte
[15] = Metabolic stability in CD1 mouse hepatocytes assessed as muraglitazar 12-carboxylic acid level by LC/MS analysis relative to control; assay type: ADME, cell-based, Hepatocyte
Hepatocyte [16] = test: Metabolic stability in human hepatocytes assessed as muraglitazar 12-carboxylic acid level by LC/MS analysis relative to control; assay type: ADME, cell-based
Plasma [17] = test: Biodistribution in orally dosed cynomolgus monkey plasma assessed as muraglitazar glucuronide level after 12 hrs by LC/MS analysis; assay type: ADME, organism-based, Macaca fascicularis; conditions: in vivo, po
Hepatocyte [18] = test: Metabolic stability in Sprague-Dawley rat hepatocytes assessed as 8-hydroxy-O-demethyl muraglitazar level by LC/MS analysis relative to control; assay type: ADME, cell-based
[19] = Biodistribution in orally dosed Beagle dog feces assessed as muraglitazar 12-carboxylic acid level by LC/MS analysis; assay type: ADME, organism-based, Canis lupus familiaris; conditions: in vivo, po
Plasma [20] = test: Biodistribution in orally dosed Beagle dog plasma assessed as 12-hydroxy-O-demethyl muraglitazar level after 12 hrs by LC/MS analysis; assay type: ADME, organism-based, Canis lupus familiaris; conditions: in vivo, po
[21] = Biodistribution in orally dosed Beagle dog feces assessed as 12-hydroxy-O-demethyl muraglitazar level by LC/MS analysis; assay type: ADME, organism-based, Canis lupus familiaris; conditions: in vivo, po
[22] = Biodistribution in orally dosed human feces assessed as muraglitazar glucuronide level by LC/MS analysis; assay type: ADME, organism-based; conditions: in vivo, po
Plasma [23] = test: Biodistribution in orally dosed Beagle dog plasma assessed as O-demethyl muraglitazar level after 1 hr by LC/MS analysis; assay type: ADME, organism-based, Canis lupus familiaris; conditions: in vivo, po
[24] = Biodistribution in orally dosed cynomolgus monkey feces assessed as 12,17-dihydroxy muraglitazar level by LC/MS analysis; assay type: ADME, organism-based, Macaca fascicularis; conditions: in vivo, po
Hepatocyte [25] = test: Metabolic stability in Sprague-Dawley rat hepatocytes assessed as 9-hydroxy muraglitazar level by LC/MS analysis relative to control; assay type: ADME, cell-based
Rattus norvegicus [26] = test: Biodistribution in orally dosed Sprague-Dawley rat feces assessed as 8-hydroxy-O-demethyl muraglitazar level by LC/MS analysis; assay type: ADME, organism-based; conditions: in vivo, po
[27] = Biodistribution in orally dosed human urine assessed as 12-hydroxy-O-demethyl muraglitazar level by LC/MS analysis; assay type: ADME, organism-based; conditions: in vivo, po
Hepatocyte [28] = test: Metabolic stability in human hepatocytes assessed as 8-hydroxy muraglitazar level by LC/MS analysis relative to control; assay type: ADME, cell-based
Rattus norvegicus [29] = test: Cmax in Sprague-Dawley rat at 10 mg/kg, po after 24 hrs; assay type: ADME, organism-based; set-up: dose 10 mg/kg, route oral; conditions: in vivo
[30] = Fecal excretion of compound in orally dosed human within 96 hrs; assay type: ADME, organism-based; conditions: faeces, po, read-out: Activity
[31] = Drug concentration in human urine assessed as recovery of radioactive dose at 20 mg, po after 240 hrs; assay type: ADME, organism-based; conditions: in vivo
Plasma [32] = test: Biodistribution in orally dosed Sprague-Dawley rat plasma assessed as muraglitazar glucuronide level after 12 hrs by LC/MS analysis; assay type: ADME, organism-based; conditions: in vivo, po
[33] = Biodistribution in orally dosed Beagle dog urine assessed as O-dealkyl-O-demethyl muraglitazar level by LC/MS analysis; assay type: ADME, organism-based, Canis lupus familiaris; conditions: in vivo, po
Plasma [34] = test: Biodistribution in orally dosed human plasma assessed as O-Dealkyl muraglitazar level after 12 hrs by LC/MS analysis; assay type: ADME, organism-based; conditions: in vivo, po
Hepatocyte [35] = test: Metabolic stability in Sprague-Dawley rat hepatocytes assessed as di-oxygenated muraglitazar level by LC/MS analysis relative to control; assay type: ADME, cell-based
Plasma [36] = test: Biodistribution in orally dosed cynomolgus monkey plasma assessed as muraglitazar glucuronide level after 4 hrs by LC/MS analysis; assay type: ADME, organism-based, Macaca fascicularis; conditions: in vivo, po
Plasma [37] = test: Biodistribution in orally dosed Beagle dog plasma assessed as O-Dealkyl muraglitazar level after 4 hrs by LC/MS analysis; assay type: ADME, organism-based, Canis lupus familiaris; conditions: in vivo, po
Rattus norvegicus [38] = test: Biodistribution in orally dosed Sprague-Dawley rat urine assessed as 9-hydroxy-O-demethyl muraglitazar level by LC/MS analysis; assay type: ADME, organism-based; conditions: in vivo, po
Rattus norvegicus [39] = test: Biodistribution in orally dosed Sprague-Dawley rat feces assessed as 17-hydroxy muraglitazar level by LC/MS analysis; assay type: ADME, organism-based; conditions: in vivo, po, pooled result: one value given for 6 cell lines, strains, targets or settings
[40] = Biodistribution in orally dosed human feces assessed as O-dealkyl muraglitazar level by LC/MS analysis; assay type: ADME, organism-based; conditions: in vivo, po
[41] = Biodistribution in orally dosed human feces assessed as 9-hydroxy muraglitazar level by LC/MS analysis; assay type: ADME, organism-based; conditions: in vivo, po
Rattus norvegicus [42] = test: AUC (0 to T) in Sprague-Dawley rat at 10 mg/kg, po after 24 hrs; assay type: ADME, organism-based, Plasma; set-up: time < 24 hr, dose 10 mg/kg, route oral; conditions: in vivo
[43] = Tmax in Beagle dog at 2 mg/kg, po after 4 hrs; assay type: ADME, organism-based, Canis lupus familiaris; set-up: dose 2 mg/kg, route oral; conditions: in vivo
[44] = Biodistribution in orally dosed human feces assessed as O-demethyl muraglitazar level by LC/MS analysis; assay type: ADME, organism-based; conditions: in vivo, po
[45] = Biodistribution in orally dosed cynomolgus monkey urine assessed as O-dealkyl muraglitazar level by LC/MS analysis; assay type: ADME, organism-based, Macaca fascicularis; conditions: in vivo, po
Rattus norvegicus [46] = test: Biodistribution in orally dosed Sprague-Dawley rat urine assessed as O-dealkyl-O-demethyl muraglitazar level by LC/MS analysis; assay type: ADME, organism-based; conditions: in vivo, po
[47] = Metabolic stability in cynomolgus monkey hepatocytes assessed as muraglitazar 12-carboxylic acid level by LC/MS analysis relative to control; assay type: ADME, cell-based, Macaca fascicularis, Hepatocyte
Hepatocyte [48] = test: Metabolic stability in human hepatocytes assessed as O-demethyl muraglitazar glucuronide level by LC/MS analysis relative to control; assay type: ADME, cell-based
Plasma [49] = test: Biodistribution in orally dosed Beagle dog plasma assessed as O-demethyl muraglitazar level after 4 hrs by LC/MS analysis; assay type: ADME, organism-based, Canis lupus familiaris; conditions: in vivo, po
Rattus norvegicus [50] = test: Biodistribution in orally dosed Sprague-Dawley rat feces assessed as imide derivative of muraglitazar level by LC/MS analysis; assay type: ADME, organism-based; conditions: in vivo, po
Plasma [51] = test: Biodistribution in orally dosed cynomolgus monkey plasma assessed as […] muraglitazar level after 12 hrs by LC/MS analysis; assay type: ADME, organism-based, Macaca fascicularis; conditions: in vivo, po
[52] = Bile excretion of compound in bile duct-cannulated orally dosed cynomolgus monkey within 48 hrs; assay type: ADME, organism-based, Macaca fascicularis; conditions: po, read-out: Activity
Hepatocyte [53] = test: Metabolic stability in human hepatocytes assessed as radioactivity recovaries at 25.6 ug/mL after 4 hrs; assay type: ADME, cell-based

COc1ccc(OC(=O)N(CC(=O)O)Cc2ccc(OCCc3nc(-c4ccccc4)oc3C)cc2)cc1 [MURAGLITAZAR]
Drug uptake [1]: 0.8% | Drug uptake (Plasma [2]): < 0.05% | Drug uptake [3]: < 0.2% | Drug uptake [4]: 8.2% | Drug uptake [5]: 0.26% | Drug uptake [6]: < 0.2% | Drug uptake [7]: 0.12% | Drug uptake (Plasma [8]): < 0.05% | Drug uptake [9]: 0.289 mgequiv/ml | Drug uptake [10]: < 0.2% | Drug uptake (Rattus norvegicus [11]): 0.01% | dose excreted at 48 h [12]: 30% | dose excreted at 48 h [13]: 15% | Drug uptake [14]: 1.3% | Drug uptake [15]: 0.8% | Drug uptake (Hepatocyte [16]): 0.9% | Drug uptake (Plasma [17]): 0.1% | Drug uptake (Hepatocyte [18]): < 0.2% | Drug uptake [19]: 0.1% | Drug uptake (Plasma [20]): 15% | Drug uptake [21]: 0.38% | Drug uptake [22]: 0.06% | Drug uptake (Plasma [23]): 1% | Drug uptake [24]: 6.43% | Drug uptake (Hepatocyte [25]): 0.3% | Drug uptake (Rattus norvegicus [26]): 9.65% | Drug uptake [27]: 0.16% | Drug uptake (Hepatocyte [28]): < 0.2% | Cmax (Rattus norvegicus [29]): 13.5 ugequiv/ml | dose excreted at 96 h [30]: 80% | Drug uptake [31]: 3.7% | Drug uptake (Plasma [32]): 0.05% | Drug uptake [33]: 0.01% | Drug uptake (Plasma [34]): 0.2% | Drug uptake (Hepatocyte [35]): 7.5% | Drug uptake (Plasma [36]): 0.2% | Drug uptake (Plasma [37]): 3% | Drug uptake (Rattus norvegicus [38]): 0.43% | Drug uptake (Rattus norvegicus [39]): 0.88% | Drug uptake [40]: 0.8% | Drug uptake [41]: 1.6% | AUC (Rattus norvegicus [42]): 105 ugequiv.h/ml | Tmax [43]: 1 h | Drug uptake [44]: 3.33% | Drug uptake [45]: 1.04% | Drug uptake (Rattus norvegicus [46]): 0.21% | Drug uptake [47]: 13% | Drug uptake (Hepatocyte [48]): < 0.2% | Drug uptake (Plasma [49]): 3% | Drug uptake (Rattus norvegicus [50]): 2.63% | Drug uptake (Plasma [51]): 1% | dose excreted at 48 h [52]: 36% | Stability (Hepatocyte [53]): 98.7%
